Patent US11648242B2, “Pharmaceutical composition comprising pimavanserin, process of preparation and use thereof” (Aurobindo Pharma Ltd., priority 2019, dated 2023)
Counter-ions that a name gives are not always drawn.

Key:
[1] = cited from earlier work
Bulk density of the API = assay type: physicochemical; conditions: native amorphous pimavanserin tartrate API
[2] = Particle size distribution (D90) of the API; assay type: physicochemical; conditions: native amorphous pimavanserin tartrate API

Bulk density (Bulk density of the API) | Particle size distribution of API (D90) [2] | Compound | Solubility in water [1]
 |  | CC(C)COc1ccc(CNC(=O)N(Cc2ccc(F)cc2)C2CCN(C)CC2)cc1 [Pimavanserin tartrate, urea, N-[(4-fluorophenyl)methyl]-N-(1-methyl-4-piperidinyl)-N′-[[4-(2methylpropoxy)phenyl]methyl]-, (2R, 3R)-2,3-dihydroxybutanedioate (2:1)] | freely soluble
0.374 g/mL | about 100 μm | CC(C)COc1ccc(CNC(=O)N(Cc2ccc(F)cc2)C2CCN(C)CC2)cc1 [native amorphous pimavanserin tartrate] | 
